This is an account of results in ChEMBL document CHEMBL2390951, “Impact of fluorination on proteolytic stability of peptides in human blood plasma” (Bioorg Med Chem, 2013).

A short description of data set [1]: Proteolytic stability in Tris-HCl buffer assessed as compound degradation at 20 umol/ml after 2 hrs by RP-HPLC analysis in presence of elastase relative to control. Type of data set: ADME. The following applies: for Stability: buffer, 2 h; for metabolised at 2 h, 20 umol/ml: elastase in Tris-HCl buffer, read-out: Drug degradation.
The subject of data set [2] is Plasma. As to the kind of experiment: (§1) Proteolytic stability in human plasma assessed as compound degradation at 1:3 compound to plasma ratio after 2 hrs by RP-HPLC analysis relative to control. Type of data set: ADME, cell-free. The following applies: 2 h.
Data set [3] in a line: as §1. Format: ADME, cell-free. The following applies: read-out: Drug degradation.

Non-standard residues stand in square brackets, D forms with d. Residues, ends and D or L forms follow the SMILES beside them. Abu(4,4,4-F3) = N[C@@H](CC(F)(F)F)C(=O)O; Abu(4,4-F2) = N[C@@H](CC(F)F)C(=O)O; 4Abz = Nc1ccc(C(=O)O)cc1; Abu = CC[C@H](N)C(=O)O

`C[C@H](NC(=O)[C@H](C)NC(=O)[C@H](CC(F)(F)F)NC(=O)[C@H](C)NC(=O)[C@H](Cc1ccccc1)NC(=O)[C@H](C)NC(=O)[C@H](C)NC(=O)[C@H](CCCCN)NC(=O)c1ccc(N)cc1)C(=O)N[C@@H](CCCCN)C(=O)O` (H-[4Abz]KAAFA[Abu(4,4,4-F3)]AAK-OH): in data set [1], the Stability entry is “Unstable”.
In the case of `C[C@H](NC(=O)[C@H](C)NC(=O)[C@H](CC(F)(F)F)NC(=O)[C@H](C)NC(=O)[C@H](Cc1ccccc1)NC(=O)[C@H](C)NC(=O)[C@H](C)NC(=O)[C@H](CCCCN)NC(=O)c1ccc(N)cc1)C(=O)N[C@@H](CCCCN)C(=O)O.O=C(O)C(F)(F)F` (H-[4Abz]KAAFA[Abu(4,4,4-F3)]AAK-OH), in data set [2], the Stability result is on record as “Unstable”.
Take `C[C@H](NC(=O)[C@H](C)NC(=O)[C@H](CC(F)F)NC(=O)[C@H](C)NC(=O)[C@H](Cc1ccccc1)NC(=O)[C@H](C)NC(=O)[C@H](C)NC(=O)[C@H](CCCCN)NC(=O)c1ccc(N)cc1)C(=O)N[C@@H](CCCCN)C(=O)O` (H-[4Abz]KAAFA[Abu(4,4-F2)]AAK-OH) [listing 1 of 2 here]: the Stability entry in data set [1] was “Stable”.
As to `C[C@H](NC(=O)[C@H](C)NC(=O)[C@H](CC(F)F)NC(=O)[C@H](C)NC(=O)[C@H](Cc1ccccc1)NC(=O)[C@H](C)NC(=O)[C@H](C)NC(=O)[C@H](CCCCN)NC(=O)c1ccc(N)cc1)C(=O)N[C@@H](CCCCN)C(=O)O` (H-[4Abz]KAAFA[Abu(4,4-F2)]AAK-OH) [listing 2 of 2 here], in data set [3], the metabolised at 2 h was no more than 35%.
With `CC[C@H](NC(=O)[C@H](C)NC(=O)[C@H](Cc1ccccc1)NC(=O)[C@H](C)NC(=O)[C@H](C)NC(=O)[C@H](CCCCN)NC(=O)c1ccc(N)cc1)C(=O)N[C@@H](C)C(=O)N[C@@H](C)C(=O)N[C@@H](CCCCN)C(=O)O` (H-[4Abz]KAAFA[Abu]AAK-OH), the Stability result in data set [1] is given as “Stable”.
Take `CC[C@H](NC(=O)[C@H](C)NC(=O)[C@H](Cc1ccccc1)NC(=O)[C@H](C)NC(=O)[C@H](C)NC(=O)[C@H](CCCCN)NC(=O)c1ccc(N)cc1)C(=O)N[C@@H](C)C(=O)N[C@@H](C)C(=O)N[C@@H](CCCCN)C(=O)O.O=C(O)C(F)(F)F` (H-[4Abz]KAAFA[Abu]AAK-OH): the Stability result in data set [2] is “Stable”.
For `C[C@H](NC(=O)[C@H](C)NC(=O)[C@H](CC(F)(F)F)NC(=O)[C@H](Cc1ccccc1)NC(=O)[C@H](C)NC(=O)[C@H](C)NC(=O)[C@H](CCCCN)NC(=O)c1ccc(N)cc1)C(=O)N[C@@H](C)C(=O)N[C@@H](CCCCN)C(=O)O` (H-[4Abz]KAAF[Abu(4,4,4-F3)]AAAK-OH), in data set [1], the Stability result is “Stable”.
On to `C[C@H](NC(=O)[C@H](C)NC(=O)[C@H](CC(F)(F)F)NC(=O)[C@H](Cc1ccccc1)NC(=O)[C@H](C)NC(=O)[C@H](C)NC(=O)[C@H](CCCCN)NC(=O)c1ccc(N)cc1)C(=O)N[C@@H](C)C(=O)N[C@@H](CCCCN)C(=O)O.O=C(O)C(F)(F)F` (H-[4Abz]KAAF[Abu(4,4,4-F3)]AAAK-OH), for which, in data set [2], the Stability entry was “Stable”.
With `C[C@H](NC(=O)[C@H](C)NC(=O)[C@H](CC(F)F)NC(=O)[C@H](Cc1ccccc1)NC(=O)[C@H](C)NC(=O)[C@H](C)NC(=O)[C@H](CCCCN)NC(=O)c1ccc(N)cc1)C(=O)N[C@@H](C)C(=O)N[C@@H](CCCCN)C(=O)O` (H-[4Abz]KAAF[Abu(4,4-F2)]AAAK-OH), the metabolised at 2 h, 20 umol/ml in data set [1] is no more than 35%.
As for `CC[C@H](NC(=O)[C@H](Cc1ccccc1)NC(=O)[C@H](C)NC(=O)[C@H](C)NC(=O)[C@H](CCCCN)NC(=O)c1ccc(N)cc1)C(=O)N[C@@H](C)C(=O)N[C@@H](C)C(=O)N[C@@H](C)C(=O)N[C@@H](CCCCN)C(=O)O` (H-[4Abz]KAAF[Abu]AAAK-OH), in data set [1], the Stability entry is “Stable”.
With `C[C@H](NC(=O)[C@H](C)NC(=O)[C@H](C)NC(=O)[C@H](Cc1ccccc1)NC(=O)[C@H](CC(F)F)NC(=O)[C@H](C)NC(=O)[C@H](CCCCN)NC(=O)c1ccc(N)cc1)C(=O)N[C@@H](C)C(=O)N[C@@H](CCCCN)C(=O)O` (H-[4Abz]KA[Abu(4,4-F2)]FAAAAK-OH), in data set [1], the metabolised at 2 h, 20 umol/ml is no more than 35%.
Turning to `CC[C@H](NC(=O)[C@H](C)NC(=O)[C@H](CCCCN)NC(=O)c1ccc(N)cc1)C(=O)N[C@@H](Cc1ccccc1)C(=O)N[C@@H](C)C(=O)N[C@@H](C)C(=O)N[C@@H](C)C(=O)N[C@@H](C)C(=O)N[C@@H](CCCCN)C(=O)O.O=C(O)C(F)(F)F` (H-[4Abz]KA[Abu]FAAAAK-OH), the Stability result in data set [2] is “Stable”.
